Laboratory results from publication PMC10734298 (ACS Omega, 2023).
Read-outs that look alike come from different tables or passages of the source.

What was measured:
[1] = test system: A/Vladivostok/2/09 (H1N1); assay: microbe, parasite or virus in culture; format: cell-based, influenza A virus; conditions: for EC50: Influenza A virus, H1N1, MDCK
[2] = test system: A/Almaty/8/98(H3N2); assay: microbe, parasite or virus in culture; format: cell-based, influenza A virus; conditions: for EC50: Influenza A virus, H3N2, MDCK
[3] = test system: A/Tern/South Africa/1/61(H5N3); assay: microbe, parasite or virus in culture; format: cell-based, influenza A virus; conditions: for EC50: Influenza A virus, H5N3, MDCK
[4] = test system: A/chicken/FPV/Rostock/1934(H7N1); format: cell-based, influenza A virus
[5] = test system: A/Vladivostok/2/09 (H1N1); assay: animal or person; format: in vivo; conditions: Influenza A virus
[6] = test system: A/Almaty/8/98(H3N2); assay: animal or person; format: in vivo, influenza A virus; conditions: for EC50: Influenza A virus, H3N2
[7] = test system: A/Tern/South Africa/1/61(H5N3); assay: animal or person; format: in vivo, influenza A virus; conditions: for EC50: Influenza A virus, H5N3
[8] = test system: A/chicken/FPV/Rostock/1934(H7N1); design: species or system influenza A virus; conditions: in vivo
[9] = test system: A/Vladivostok/2/09 (H1N1); design: species or system influenza A virus
[10] = test system: A/Almaty/8/98(H3N2); design: species or system influenza A virus
[11] = test system: A/Tern/South Africa/1/61 (H5N3); design: species or system influenza A virus
[12] = test system: A/chicken/FPV/Rostock/1934 (H7N1); design: species or system influenza A virus
[13] = test system: A/Vladivostok/2/09 (H1N1); format: biochemical, influenza A virus; conditions: read-out: Hemagglutination Inhibition Concentration 50 (HIC50)
[14] = test system: A/Almaty/8/98(H3N2); format: biochemical, influenza A virus; conditions: read-out: Hemagglutination Inhibition Concentration 50 (HIC50)
[15] = test system: A/Tern/South Africa/1/61 (H5N3); format: biochemical, influenza A virus; conditions: read-out: Hemagglutination Inhibition Concentration 50 (HIC50)
[16] = test system: A/chicken/FPV/Rostock/1934 (H7N1); format: biochemical, influenza A virus; conditions: read-out: Hemagglutination Inhibition Concentration 50 (HIC50)
[17] = biological target: NA of A/Tern/South Africa/1/61 (H5N3) (Influenza A virus, UniProt Q6XV52); assay: biochemical
[18] = biological target: NA of A/chicken/FPV/Rostock/1934 (H7N1) (Influenza A virus, UniProt Q64968); format: biochemical; conditions: read-out: Neuraminidase Inhibition Concentration 50 (NIC50)
[19] = test system: influenza virus (all tested viruses); assay: microbe, parasite or virus in culture; format: cell-based, influenza A virus; conditions: unidentified influenza virus, MDCK, read-out: EC50 value
[20] = Toxicity in MDCK cells; conditions: dog
[21] = Toxicity in fertilized chicken eggs; conditions: in vivo, other: inoculated into the allantoic cavity
[22] = test system: NA protein of panel of viruses; assay: NA inhibition assay, whole virus panel; format: biochemical, influenza A virus; conditions: read-out: concentrations inhibiting the NA activity; range over panel viruses

NA of A/Tern/South Africa/1/61 (H5N3), sequence (Q6XV52 whole entry, looked up): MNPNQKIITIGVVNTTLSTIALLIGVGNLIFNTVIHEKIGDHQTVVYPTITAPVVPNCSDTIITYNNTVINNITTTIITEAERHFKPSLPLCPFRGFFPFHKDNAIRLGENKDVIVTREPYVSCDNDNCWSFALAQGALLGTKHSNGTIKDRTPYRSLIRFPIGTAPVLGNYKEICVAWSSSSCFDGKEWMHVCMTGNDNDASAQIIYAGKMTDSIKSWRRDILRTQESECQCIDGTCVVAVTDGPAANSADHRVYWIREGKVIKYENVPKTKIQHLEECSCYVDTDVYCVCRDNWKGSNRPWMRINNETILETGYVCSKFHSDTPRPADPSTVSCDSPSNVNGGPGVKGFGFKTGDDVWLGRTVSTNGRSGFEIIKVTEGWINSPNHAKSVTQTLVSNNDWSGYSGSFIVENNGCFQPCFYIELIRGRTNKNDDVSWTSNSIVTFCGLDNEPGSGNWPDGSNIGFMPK
NA of A/chicken/FPV/Rostock/1934 (H7N1), sequence (Q64968 whole entry, looked up): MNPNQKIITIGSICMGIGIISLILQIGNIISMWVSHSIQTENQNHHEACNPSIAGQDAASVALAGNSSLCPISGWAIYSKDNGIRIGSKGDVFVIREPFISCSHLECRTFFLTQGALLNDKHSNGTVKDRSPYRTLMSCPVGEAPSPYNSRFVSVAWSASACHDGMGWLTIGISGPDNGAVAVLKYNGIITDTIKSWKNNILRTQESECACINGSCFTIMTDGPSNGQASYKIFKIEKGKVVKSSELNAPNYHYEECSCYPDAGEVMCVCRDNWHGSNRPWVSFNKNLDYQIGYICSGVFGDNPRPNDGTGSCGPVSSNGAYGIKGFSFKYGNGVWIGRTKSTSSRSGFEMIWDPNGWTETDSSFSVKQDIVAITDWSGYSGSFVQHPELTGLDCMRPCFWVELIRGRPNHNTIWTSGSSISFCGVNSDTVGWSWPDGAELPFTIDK

Row | Structure (SMILES) | EC50 [1] [µM] | EC50 [2] [µM] | EC50 [3] [µM] | EC50 [6] [µM] | EC50 [7] [µM] | Virus Titer Reduction Factor (VTRF) [9] | Virus Titer Reduction Factor (VTRF) [10] | Virus Titer Reduction Factor (VTRF) [11] | Virus Titer Reduction Factor (VTRF) [12] | IC50 [13] [µM] | IC50 [14] [µM] | IC50 [15] [µM] | IC50 [16] [µM] | IC50 [17] [µM] | IC50 [18] [µM] | EC50 [19] [µM] | CC50 at 48 h [20] [µM] | CC50 at 5 days [21] [µM] | other results
1 | COc1cc(-c2oc3cc(O)cc(O)c3c(=O)c2O)ccc1O [isorhamnetin] | 56 ± 0.45 | 28 ± 0.34 | 35.4 ± 0.18 | 28 ± 0.34 | 35.4 ± 0.18 | 1.5 ± 0.02 | 1.5 ± 0.02 | 1.9 ± 0.02 | 1.5 ± 0.02 | 156 ± 2 | 50.5 ± 0.45 | 39.3 ± 0.7 | 48.2 ± 1.7 | 370 ± 7.5 | 68.2 ± 1.2 | 28 to 56 | > 280 | > 420 | SI [1]: >5.0; SI [2]: >10.0; SI [3]: >7.9; SI [4]: >8.1; EC50 [5]: 56 ± 0.45 µM; SI ([6]; in vivo): >15; SI ([7]; in vivo): >12.0; SI [8]: >12.1
2 | CCOC(=O)C1=C[C@@H](OC(CC)CC)[C@H](NC(C)=O)[C@@H](N)C1 [oseltamivir] | 9.091 ± 0.04 | 1.33 ± 0.028 | 1.65 ± 0.027 | 1.33 ± 0.028 | 1.65 ± 0.027 | 1.0 ± 0.02 | 1.0 ± 0.02 | 1.0 ± 0.01 | 1.0 ± 0.02 | 155 ± 5.1 | 145 ± 6.6 | 155 ± 2 | 135 ± 6.6 | 20.3 ± 0.5 | 6.1 ± 0.2 | 1.3 to 9.1 | > 100 | > 150 | IC50 [22]: 4 to 20.3 µM
